The target in test [1] is EGFR double mutation L858R/T790M (H1975 cells) (Homo sapiens (Human), UniProt P00533, L858R/T790M). The experiment in a line: Phospho-EGFR signaling (immunoblotting, 1 hr) in H1975 cells. It counts as cell-based. The following applies: signaling EC50 WT (A431) / H1975. As for the experimental part: (§1) A431 human epidermoid carcinoma, H1975 human NSCLC and HCC827 human NSCLC adenocarcinoma cells were obtained from the American Type Culture Center (Manassas, Va.). A431 cells were grown in DMEM (Invitrogen, Carlsbad, Calif.) supplemented with 10% FBS (HyClone, South Logan, Utah) and 1% Penicillin-Streptomycin (P/S, Lonza, Walkersville, Md.).
All primary antibodies were obtained from Cell Signaling (Danvers, Mass.) and used at 1:1000. Secondary antibodies were used at 1:10,000. Goat anti-mouse IgG IRDye 800CW antibody was obtained from LiCor Biosciences (Lincoln, Nebr.) and goat anti-rabbit IgG Alexa Fluor 680 was obtained from Invitrogen.
Cells were grown in 12-well plates (Corning, Coring, N.Y.) to 90% confluence and then incubated in low-serum (0.1% FBS) media for 16-18 hr. […] A431 cells were then stimulated with 50 ng/ml EGF (Peprotech, Rocky Hill, N.J.) for 15 min. After treatment, cell monolayers were washed with cold PBS (Invitrogen) and immediately lysed by scrapping into 60 uL cold Cell Extraction Buffer (Invitrogen) supplemented with Complete Protease inhibitors (Roche, Indianapolis, Ind.) and PhosphoSTOP (Roche) phosphatase inhibitors.
Phospho-protein signals were quantitated using Odyssey Infrared Imaging (Li-Cor Biosciences).
To assess phosphor-EGFR signaling, blots were probed with rabbit anti-Phospho-EGFR (Y1068) and mouse total anti-EGFR antibodies. Phospho-EGFR signal was normalized to total EGFR expression for each sample. […] Normalized data was fitted using a sigmoidal curve analysis program (Graph Pad Prism version 5) with variable Hill slope to determine the EC50 values.
In general terms: A western blot detects proteins with antibodies after separation by electrophoresis.

Another test deals with A431 cells (WT EGFR). The experiment in a line: Cell proliferation (CellTiter Glo, 72 hr) in A431 cells. To be noted: Homo sapiens, A-431. It counts as cell-based. As to the method:
as §1
(§2) Cells were plated in Growth Media supplemented with 5% FBS and 1% P/S at a density of 3,000 cells per well in 96 well tissue culture plates (Corning). […] Growth inhibition (GI50) values were determined by Graph Pad Prism.
Background: In ATP-based viability assays light output follows the ATP content of the culture.

Test [2] deals with H1975 cells (EGFR L858R/T790M). The experiment in a line: Cell proliferation (CellTiter Glo, 72 hr) in H1975 cells. In kind it is cell-based, human. The following applies: Homo sapiens, NCI-H1975. As to the method: as §1, §2
In test [3] the test system is HCC827 cells (EGFR delE746-A750). The experiment in a line: Cell proliferation (CellTiter Glo, 72 hr) in HCC827 cells. In kind it is cell-based, human. To be noted: Homo sapiens. As to the method: as §1, §2
A further test has as its target pEGFR in H1975 cells (Homo sapiens (Human), UniProt P00533, L858R/T790M). The experiment in a line: Washout experiment in H1975 cells (pEGFR). It counts as cell-based. To be noted: 500 nM for 1 hr; for inhibition at 0.5 µM: NCI-H1975. As to the method:
Washout Experiment in H1975 Cells Containing EGFR Deletion/T790M Mutation
Cells were plated in Growth Media supplemented with 10% FBS and 1% P/S at a density of 2.0×10^5 cells per well in 12 well tissue culture plates. Cells were allowed to settle down for 4 hrs and then maintained in low-serum (0.1% FBS) media overnight.
The following morning the media was removed and the cells were treated with 500 nM test compound in low-serum media for 1 hr. The cells were washed free of compound 2× with PBS (Invitrogen). One set of cells were immediately lysed as indicated above as the 0 hr time point. The remaining cells were incubated with complete RPMI-1640 growth media (10% FBS) for 1, 3, 6 and 24 hr. For the first 1 hr, cells were washed 2× with PBS every 30 min. DMSO (0.5%) controls were collected at the 0, 3, 6 and 24 hr time points.

Setting [4] is: A431 cells, 72 hr, read-out: WT EGFR GI50.
Where [5] appears, read: H1975 cells, 72 hr, read-out: H1975 GI50.
Where [6] appears, read: HCC827 cells, 72 hr, read-out: HCC827 GI50.

Data on 15 molecules can be found in patent US10434101B2, “Heterocyclic compounds and uses thereof” (Celgene CAR LLC, priority 2010, dated 2019).

Like-named read-outs stand apart in the source and are kept apart here.

In the case of `C=CC(=O)Nc1cccc(Nc2nc(Nc3ccc(N4CCN(C(C)=O)CC4)cc3OC)ncc2Br)c1` [Compound I-40, N-(3-(2-(4-(4-acetylpiperazin-1-yl)-2-methoxyphenylamino)-5-bromopyrimidin-4-ylamino)phenyl)acrylamide], in test [1], the “Ratio WT/mutant (H1975)” value is over 1. Further, the results for the GI50 (with A431 cells (WT EGFR) (setting [4]); in test [2] (setting [5]); in test [3] (setting [6])) were 500 to 1000 nM, 100 to 500 nM and 10 to 100 nM, respectively.
Regarding `C=CC(=O)Nc1cccc(Oc2nc(Nc3ccc(N4CCOCC4)cc3OC)ncc2C(F)(F)F)c1` [Compound I-1, N-(3-(2-(2-methoxy-4-morpholinophenylamino)-5-(trifluoromethyl)pyrimidin-4-yloxy)phenyl)acrylamide], the “Ratio WT/mutant (H1975)” value in test [1] is over 50. For the same molecule, the GI50 (usually the concentration that inhibits growth by half) is over 1000 nM with A431 cells (WT EGFR) (setting [4]), 10 to 100 nM in test [2] (setting [5]) and 10 to 100 nM in test [3] (setting [6]).
For the molecule `C=CC(=O)Nc1cccc(Nc2nc(Nc3ccc(N4CCN(C(=O)CO)CC4)cc3OC)ncc2Cl)c1` [Compound I-12, N-(3-(5-chloro-2-(4-(4-(2-hydroxyacetyl)piperazin-1-yl)-2-methoxyphenylamino)pyrimidin-4-ylamino)phenyl)acrylamide], in test [1], the “Ratio WT/mutant (H1975)” value was over 1. In addition, the GI50 in the test on A431 cells (WT EGFR) (setting [4]) was 500 to 1000 nM; in test [2] (setting [5]), 100 to 500 nM; in test [3] (setting [6]), 10 to 100 nM.
Take `C=CC(=O)Nc1cccc(Nc2nc(Nc3ccc(N4CCN(C(C)=O)CC4)cc3OC)ncc2C(F)(F)F)c1` [Compound I-4, N-(3-(2-(4-(4-acetylpiperazin-1-yl)-2-methoxyphenylamino)-5-(trifluoromethyl)pyrimidin-4-ylamino)phenyl)acrylamide]: the GI50 in the test on A431 cells (WT EGFR) (setting [4]) lay in the range of 500 to 1000 nM; with A431 cells (WT EGFR) (Table 2, A431 cells express WT EGFR, read-out: Comparative GI50 Values, A431) it was 500 to 1000 nM; in test [2] (setting [5]), 10 to 100 nM; in test [2] (Table 2, H1975 express EGFR L858R/T790M, read-out: Comparative GI50 Values, H1975) it was 10 to 100 nM; in test [3] (setting [6]), 10 to 100 nM; in test [3] (Table 2, HCC827 express EGFR delE746-A750, read-out: Comparative GI50 Values, HCC827) it was 10 to 100 nM. Moreover, the pEGFR activity restored on pEGFR in H1975 cells (24 h after compound removal, by new protein synthesis) is given as 40-60%. For the same molecule, the inhibition at 0.5 µM at pEGFR in H1975 cells (1 hr after compound removal, read-out: pEGFR phosphorylation inhibited) is 80 to 100%; at pEGFR in H1975 cells (for at least 8 hours after compound was removed, read-out: pEGFR remained inhibited), 60 to 90%.
`C=CC(=O)Nc1cccc(Nc2nc(Nc3ccc(N4CCCN(C(C)=O)CC4)cc3OC)ncc2C(F)(F)F)c1` [Compound I-7, N-(3-(2-(4-(4-acetyl-1,4-diazepan-1-yl)-2-methoxyphenylamino)-5-(trifluoromethyl)pyrimidin-4-ylamino)phenyl)acrylamide]: the “Ratio WT/mutant (H1975)” value in test [1] is over 5. Besides, the GI50 was over 1000 nM with A431 cells (WT EGFR) (setting [4]), 100 to 500 nM in test [2] (setting [5]) and 100 to 500 nM in test [3] (setting [6]).
For `C=CC(=O)Nc1cccc(Nc2nc(Nc3ccc(N4CCN(C(C)=O)[C@H](C(=O)OC)C4)cc3OC)ncc2C(F)(F)F)c1` [Compound I-48], in test [1], the “Ratio WT/mutant (H1975)” value is on record as over 50. For the same molecule, the GI50 with A431 cells (WT EGFR) (setting [4]) was over 1000 nM; in test [2] (setting [5]), 10 to 100 nM; in test [3] (setting [6]) it was 10 to 100 nM.
Take `C=CC(=O)Nc1cccc(Nc2nc(Nc3ccc(N4CCN(S(C)(=O)=O)CC4)cc3OC)ncc2Cl)c1` [Compound I-41, N-(3-(5-chloro-2-(2-methoxy-4-(4-(methylsulfonyl)piperazin-1-yl)phenylamino)pyrimidin-4-ylamino)phenyl)acrylamide]: the “Ratio WT/mutant (H1975)” value in test [1] is over 1. Also, the GI50 is over 1000 nM with A431 cells (WT EGFR) (setting [4]), 100 to 500 nM in test [2] (setting [5]) and 10 to 100 nM in test [3] (setting [6]).
Taken in the same sequence, the figures for `C=CC(=O)Nc1cccc(Oc2nc(Nc3ccc(N4CCN(C(=O)NC)CC4)cc3OC)ncc2C(F)(F)F)c1` [Compound I-21, 4-(4-(4-(3-acrylamidophenoxy)-5-(trifluoromethyl)pyrimidin-2-ylamino)-3-methoxyphenyl)-N-methylpiperazine-1-carboxamide] were over 5, 500 to 1000 nM, 100 to 500 nM and 10 to 100 nM.
Regarding `C=CC(=O)Nc1cccc(Oc2nc(Nc3ccc(N4CCN(S(C)(=O)=O)CC4)cc3OC)ncc2C(F)(F)F)c1` [Compound I-22, N-(3-(2-(2-methoxy-4-(4-(methylsulfonyl)piperazin-1-yl)phenylamino)-5-(trifluoromethyl)pyrimidin-4-yloxy)phenyl)acrylamide], the “Ratio WT/mutant (H1975)” value in test [1] was over 35. Besides, the 50% growth inhibitory concentration (GI50) in the test on A431 cells (WT EGFR) (setting [4]) is over 1000 nM; in test [2] (setting [5]), 100 to 500 nM; in test [3] (setting [6]), 10 to 100 nM.
Taken in the same sequence, the figures for `C=CC(=O)Nc1cccc(Nc2nc(Nc3ccc(N4CCCN(C(=O)OC(C)(C)C)CC4)cc3OC)ncc2C(F)(F)F)c1` [Compound I-44, tert-butyl 4-(4-(4-(3-acrylamidophenylamino)-5-(trifluoromethyl)pyrimidin-2-ylamino)-3-methoxyphenyl)-1,4-diazepane-1-carboxylate] were over 5, over 1000 nM, 500 to 1000 nM and 500 to 1000 nM.
Taken in the same sequence, the figures for `C=CC(=O)Nc1cccc(Oc2nc(Nc3ccc(N4CCN(S(C)(=O)=O)CC4)cc3OC)ncc2Cl)c1` [Compound I-26, N-(3-(5-chloro-2-(2-methoxy-4-(4-(methylsulfonyl)piperazin-1-yl)phenylamino)pyrimidin-4-yloxy)phenyl)acrylamide] were over 40, over 1000 nM, over 1000 nM and 10 to 100 nM.
As for `C=CC(=O)Nc1cccc(Oc2nc(Nc3ccc(N4CCN(C(=O)CO)CC4)cc3OC)ncc2C(F)(F)F)c1` [Compound I-11, N-(3-(2-(4-(4-(2-hydroxyacetyl)piperazin-1-yl)-2-methoxyphenylamino)-5-(trifluoromethyl)pyrimidin-4-yloxy)phenyl)acrylamide], the “Ratio WT/mutant (H1975)” value in test [1] is listed as over 15. Moreover, the figures for the GI50 (with A431 cells (WT EGFR) (setting [4]); in test [2] (setting [5]); in test [3] (setting [6])) were over 1000 nM, 100 to 500 nM and 10 to 100 nM, respectively.
The corresponding values for `C=CC(=O)Nc1cccc(Oc2nc(Nc3ccc(N4CCN(C(=O)CO)CC4)cc3OC)ncc2Cl)c1` [Compound I-3, N-(3-(5-chloro-2-(4-(4-(2-hydroxyacetyl)piperazin-1-yl)-2-methoxyphenylamino)pyrimidin-4-yloxy)phenyl)acrylamide] are over 5, over 1000 nM, 100 to 500 nM and 10 to 100 nM.
The corresponding values for `C=CC(=O)Nc1cccc(Nc2nc(Nc3ccc(N4CCN(C(=O)C(C)(C)C)CC4)cc3OC)ncc2C(F)(F)F)c1` [Compound I-34, N-(3-(2-(2-methoxy-4-(4-pivaloylpiperazin-1-yl)phenylamino)-5-(trifluoromethyl)pyrimidin-4-ylamino)phenyl)acrylamide] are over 35, over 1000 nM, 100 to 500 nM and 10 to 100 nM.
On to `C=CC(=O)Nc1cccc(Nc2nc(Nc3ccc(N4CCN(C(C)=O)CC4)cc3OC)ncc2Cl)c1` [Compound I-8, N-(3-(2-(4-(4-acetylpiperazin-1-yl)-2-methoxyphenylamino)-5-chloropyrimidin-4-ylamino)phenyl)acrylamide], for which the “Ratio WT/mutant (H1975)” value in test [1] is over 1. In addition, the results for the GI50 (in the test on A431 cells (WT EGFR) (setting [4]); in test [2] (setting [5]); in test [3] (setting [6])) were 500 to 1000 nM, 100 to 500 nM and 10 to 100 nM, respectively.
